Data: patent US20230414774A1, “ANTI-CLDN18.2 ANTIBODY, DRUG CONJUGATE, AND PREPARATION METHOD THEREFOR AND USE THEREOF” (CSPC MEGALITH BIOPHARMACEUTICAL CO., LTD., priority 2020, published 2023)

Assays:
[1] = tested on: human pancreatic cancer Bxpc3-18.2 xenografts; test: In vivo efficacy, xenograft, gemcitabine as reference; design: species or system nude mice; settings: i.v., 50 mg/kg biw×4, day 28
Experimental: 1) In this experiment, nude mice with human pancreatic cancer Bxpc3-18.2 xenografts were used. When the tumor volume reached about 100 mm^3 (day 39 after inoculation), 48 animals with bulky xenografts were selected and divided into six groups (on day 0) with tumor volume balancing among groups. Eight animals in individual groups were intravenously administered 0.9% sodium chloride injection (0.9% INJ NS, vehicle control group), SYJS001-ADC at 2, 4 and 8 mg/kg (single dose), SYJS001-mAb (SYJS001 nude antibody) at 8 mg/kg (single dose) and Gemcitabine (GEM) at 50 mg/kg (biw×4, twice a week for 4 weeks), respectively. Tumor diameters were measured twice a week. Mice were weighed, and data were recorded. Tumor growth was dynamically observed by measuring tumor diameters at different times after dosing. At the end of the experiment on day 28, the mice were asphyxiated with carbon dioxide, and the tumors were peeled and weighed.

[2] = tested on: human gastric cancer NUGC-4-18.2 xenografts; test: In vivo efficacy, xenograft, cisplatin as reference; design: species or system nude mice; settings: i.v., 6 mg/kg qw×3, day 20
Experimental: 2) In this experiment, nude mice with human gastric cancer NUGC-4-18.2 xenografts were used. When the tumor volume reached about 120 mm^3 (day 6 after inoculation), 64 animals with bulky xenografts were selected and divided into eight groups (on day 0) with tumor volume balancing among groups. Eight animals in individual groups were intravenously administered 0.9% sodium chloride injection (0.9% INJ NS, vehicle control group), SYJS001-ADC at 1, 2 and 4 mg/kg (qw×3), SYJS001-ADC at 4 and 8 mg/kg (single dose), SYJS001-mAb at 4 mg/kg (qw×3) and Cisplatin at 6 mg/kg (qw×3, once a week for 3 weeks), respectively. Tumor diameters were measured twice a week. Mice were weighed, and data were recorded. Tumor growth was dynamically observed by measuring tumor diameters at different times after dosing. At the end of the experiment on day 20, the mice were asphyxiated with carbon dioxide, and the tumors were peeled and weighed.

[3] = molecular target: human CLDN18.2 on cells (human) (UniProt P56856); test: flow cytometry on BxPC3-CLDN18.2 cells, ED50 comparison

## Nc1ccn([C@@H]2O[C@H](CO)[C@@H](O)C2(F)F)c(=O)n1 [Gemcitabine]
[1]
  tumor weight suppression rate: 51.0%

## N.N.[Cl][Pt][Cl] [Cisplatin]
[2]
  tumor weight suppression rate: 66.5%

B1: SYJS001 monoclonal antibody (antibody, human IgG1, kappa, V domains shown)
VH: EVQLSESGGALVQPGESLRLSCAASGFTFSSYAMTWVRQAPGKGLEWVSSLSGSGRSTYYAASIKGRFTISRDNSKNTLYLQMSSLRAEDTAIYYCAKSLSYYHYYFDYWGQGTLVTVSS
VL: DIQLTQSPSFLSASVGDRVPITCRASQDISNYLAWYQQKPGKAPKLLIYSASTLQSGVPSRFSGSGSGTEFTLTISSLQPEDFASYHCQQVKTYPLTFGGGTKVEIKR
[3]
  fold affinity against IMAB362: 2 fold
